Source: ChEMBL document CHEMBL5120784, “Discovery of a novel 2-aminopyrazine-3-carboxamide as a potent and selective inhibitor of Activin Receptor-Like Kinase-2 (ALK2) for the treatment of fibrodysplasia ossificans progressiva” (Bioorg Med Chem Lett, 2022)
Converted amounts (≈) assume the structure as drawn. Blank lines part the entries; values can stand above or below the compound they belong to.

Legend:
[1] = Permeability of compound by PAMPA assay; format: ADME; set-up: reference not given here
[2] = Microsomal stability in mouse liver microsomes assessed as clearance; format: ADME, Microsome
[3] = Aqueous solubility of compound at pH 6.8; format: physicochemical
[4] = target: Non-receptor tyrosine-protein kinase TYK2 (Homo sapiens) (UniProt P29597); test: Binding affinity to wild type TYK2 JH2 domain (unknown origin) assessed as percent of control at 1 uM by Kinomescan method relative to control
TGF-beta receptor type-1 = target: T1, TGF-beta receptor type-1 (Homo sapiens, UniProt P36897); test: Inhibition of wild type ALK5 (unknown origin) assessed as enzymatic activity by microfluidic mobility shift assay
T1 sequence (P36897 whole entry): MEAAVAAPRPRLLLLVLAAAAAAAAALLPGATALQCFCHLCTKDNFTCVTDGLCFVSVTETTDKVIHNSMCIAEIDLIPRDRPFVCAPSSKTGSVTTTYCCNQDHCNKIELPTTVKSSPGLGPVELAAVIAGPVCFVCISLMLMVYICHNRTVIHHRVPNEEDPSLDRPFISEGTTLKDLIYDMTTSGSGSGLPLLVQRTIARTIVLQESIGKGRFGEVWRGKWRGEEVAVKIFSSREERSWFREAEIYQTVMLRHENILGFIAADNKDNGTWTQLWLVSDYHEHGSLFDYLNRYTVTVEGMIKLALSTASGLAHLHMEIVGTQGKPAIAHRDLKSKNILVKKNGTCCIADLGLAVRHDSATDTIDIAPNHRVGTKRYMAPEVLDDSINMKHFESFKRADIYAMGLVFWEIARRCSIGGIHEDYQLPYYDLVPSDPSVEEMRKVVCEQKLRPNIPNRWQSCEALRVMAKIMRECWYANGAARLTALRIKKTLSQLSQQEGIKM

[5] = target: T2, Bone morphogenetic protein receptor type-1A (Homo sapiens, UniProt P36894); test: Binding affinity to wild type ALK3 (unknown origin) assessed as percent of control at 1 uM by Kinomescan method relative to control
Homo sapiens [6] = species: Homo sapiens; test: Selectivity ratio of IC50 for inhibition of wild type ALK3 (unknown origin) to IC50 for inhibition of ALK2 R206H mutant (unknown origin)
[7] = target: T3, Activin receptor type-1 (Homo sapiens) (UniProt Q04771); test: Binding affinity to wild type ALK2 (unknown origin) assessed as percent of control at 1 uM by Kinomescan method relative to control
T3 sequence (whole entry): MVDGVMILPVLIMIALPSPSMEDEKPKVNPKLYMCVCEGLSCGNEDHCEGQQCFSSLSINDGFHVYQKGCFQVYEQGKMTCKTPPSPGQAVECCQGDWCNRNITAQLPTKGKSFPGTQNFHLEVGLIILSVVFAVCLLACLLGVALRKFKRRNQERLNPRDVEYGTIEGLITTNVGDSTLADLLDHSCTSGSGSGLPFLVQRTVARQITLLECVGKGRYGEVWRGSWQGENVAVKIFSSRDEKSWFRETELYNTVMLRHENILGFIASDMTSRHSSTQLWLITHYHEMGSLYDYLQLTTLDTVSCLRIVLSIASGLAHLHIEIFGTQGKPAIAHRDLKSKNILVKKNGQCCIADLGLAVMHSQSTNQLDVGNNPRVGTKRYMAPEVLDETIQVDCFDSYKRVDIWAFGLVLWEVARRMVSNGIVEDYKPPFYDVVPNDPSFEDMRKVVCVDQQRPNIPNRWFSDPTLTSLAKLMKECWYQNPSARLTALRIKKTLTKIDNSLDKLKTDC

Homo sapiens [8] = species: Homo sapiens; test: Selectivity ratio of IC50 for inhibition of wild type ALK6 (unknown origin) to IC50 for inhibition of ALK2 R206H mutant (unknown origin)
Homo sapiens [9] = species: Homo sapiens; test: Selectivity ratio of IC50 for inhibition of wild type ALK5 (unknown origin) to IC50 for Inhibition of ALK2 R206H mutant (unknown origin)
[10] = target: Interferon-induced, double-stranded RNA-activated protein kinase (Homo sapiens) (UniProt P19525); test: Binding affinity to wild type EIF2AK2 (unknown origin) assessed as percent of control at 1 uM by Kinomescan method relative to control
[11] = target: T4, Activin receptor type-1-like (Homo sapiens, UniProt P37023); test: Inhibition of wild type ALK1 (unknown origin) assessed as enzymatic activity by microfluidic mobility shift assay
Activin receptor type-1 [12] = target: T5, Activin receptor type-1 (Homo sapiens, UniProt Q04771); test: Inhibition of wild type ALK2 (unknown origin) assessed as enzymatic activity by microfluidic mobility shift assay
T5 sequence (Q04771 whole entry): T3 sequence (whole entry)

Homo sapiens [13] = species: Homo sapiens; test: Selectivity ratio of IC50 for inhibition of wild type ALK2 (unknown origin) to IC50 for inhibition of ALK2 R206H mutant (unknown origin)
Activin receptor type-1 [14] = target: T6, Activin receptor type-1 (Homo sapiens, UniProt Q04771, R206H); test: Inhibition of ALK2 R206H mutant (unknown origin) transfected in BMP6-stimulated human HEK293 cells by luciferase reporter gene assay; format: cell-based
Activin receptor type-1 [15] = target: T6, Activin receptor type-1; test: Inhibition of ALK2 R206H mutant (unknown origin) assessed as enzymatic activity by microfluidic mobility shift assay
[16] = target: Dual specificity protein kinase CLK1 (Homo sapiens) (UniProt P49759); test: Binding affinity to wild type CLK1 (unknown origin) assessed as percent of control at 1 uM by Kinomescan method relative to control
Homo sapiens [17] = species: Homo sapiens; test: Selectivity ratio of IC50 for inhibition of wild type ALK1 (unknown origin) to IC50 for inhibition of ALK2 R206H mutant (unknown origin)
[18] = target: T7, Bone morphogenetic protein receptor type-1B (Homo sapiens, UniProt O00238); test: Binding affinity to wild type ALK6 (unknown origin) assessed as percent of control at 1 uM by Kinomescan method relative to control
[19] = target: T2, Bone morphogenetic protein receptor type-1A; test: Inhibition of wild type ALK3 (unknown origin) assessed as enzymatic activity using chemiluminescent substrate by ADP-Glo assay
[20] = target: T7, Bone morphogenetic protein receptor type-1B; test: Inhibition of wild type ALK6 (unknown origin) assessed as enzymatic activity using chemiluminescent substrate by ADP-Glo assay
[21] = target: Serine/threonine-protein kinase 38 (Homo sapiens) (UniProt Q15208); test: Binding affinity to wild type STK38 (unknown origin) assessed as percent of control at 1 uM by Kinomescan method relative to control
[22] = target: T4, Activin receptor type-1-like; test: Binding affinity to wild type ALK1 (unknown origin) assessed as percent of control at 1 uM by Kinomescan method relative to control
[23] = target: Dual specificity protein kinase CLK2 (Homo sapiens) (UniProt P49760); test: Binding affinity to wild type CLK2 (unknown origin) assessed as percent of control at 1 uM by Kinomescan method relative to control
Chain of Dual specificity protein kinase CLK2 (Homo sapiens) (P49760 whole entry, looked up): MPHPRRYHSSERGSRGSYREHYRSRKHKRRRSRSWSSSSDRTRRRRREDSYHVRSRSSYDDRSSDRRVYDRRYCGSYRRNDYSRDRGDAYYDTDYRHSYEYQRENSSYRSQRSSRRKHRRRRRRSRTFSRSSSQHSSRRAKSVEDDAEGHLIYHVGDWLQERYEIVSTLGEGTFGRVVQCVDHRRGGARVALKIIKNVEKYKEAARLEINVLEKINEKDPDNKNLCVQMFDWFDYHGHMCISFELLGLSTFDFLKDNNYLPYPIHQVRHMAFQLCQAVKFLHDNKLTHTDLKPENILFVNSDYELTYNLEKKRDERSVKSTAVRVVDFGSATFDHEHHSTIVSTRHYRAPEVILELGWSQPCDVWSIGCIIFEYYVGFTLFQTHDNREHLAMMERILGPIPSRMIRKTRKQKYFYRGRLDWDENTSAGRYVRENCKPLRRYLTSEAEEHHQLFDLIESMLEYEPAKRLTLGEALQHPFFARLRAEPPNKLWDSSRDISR

T6 sequence (Q04771 21-509 R206H limits assumed): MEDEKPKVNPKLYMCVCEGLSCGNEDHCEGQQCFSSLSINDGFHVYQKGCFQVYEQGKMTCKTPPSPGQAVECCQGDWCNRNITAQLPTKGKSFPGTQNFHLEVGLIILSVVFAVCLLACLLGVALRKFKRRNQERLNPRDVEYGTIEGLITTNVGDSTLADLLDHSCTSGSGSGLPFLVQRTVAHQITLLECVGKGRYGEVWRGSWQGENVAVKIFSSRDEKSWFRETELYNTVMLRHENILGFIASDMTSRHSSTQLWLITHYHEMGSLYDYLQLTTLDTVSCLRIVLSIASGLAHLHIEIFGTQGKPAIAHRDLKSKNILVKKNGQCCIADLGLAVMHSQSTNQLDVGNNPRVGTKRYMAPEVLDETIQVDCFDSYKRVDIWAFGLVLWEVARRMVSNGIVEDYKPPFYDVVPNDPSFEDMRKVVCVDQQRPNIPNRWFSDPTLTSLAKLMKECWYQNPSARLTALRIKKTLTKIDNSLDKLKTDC
T2 sequence (P36894 whole entry): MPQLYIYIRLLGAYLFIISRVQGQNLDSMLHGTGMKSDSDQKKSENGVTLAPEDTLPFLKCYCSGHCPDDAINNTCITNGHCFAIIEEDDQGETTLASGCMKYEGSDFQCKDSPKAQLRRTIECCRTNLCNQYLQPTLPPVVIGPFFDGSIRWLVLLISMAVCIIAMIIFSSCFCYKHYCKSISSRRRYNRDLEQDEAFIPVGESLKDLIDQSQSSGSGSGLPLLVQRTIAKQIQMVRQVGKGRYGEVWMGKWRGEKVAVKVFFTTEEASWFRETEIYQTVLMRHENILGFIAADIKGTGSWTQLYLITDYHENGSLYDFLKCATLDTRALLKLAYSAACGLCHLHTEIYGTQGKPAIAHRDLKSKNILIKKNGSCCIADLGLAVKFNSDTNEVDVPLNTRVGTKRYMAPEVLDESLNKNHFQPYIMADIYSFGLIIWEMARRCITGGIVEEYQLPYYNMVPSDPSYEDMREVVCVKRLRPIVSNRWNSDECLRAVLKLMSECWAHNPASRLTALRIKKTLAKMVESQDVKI
T4 sequence (P37023 whole entry): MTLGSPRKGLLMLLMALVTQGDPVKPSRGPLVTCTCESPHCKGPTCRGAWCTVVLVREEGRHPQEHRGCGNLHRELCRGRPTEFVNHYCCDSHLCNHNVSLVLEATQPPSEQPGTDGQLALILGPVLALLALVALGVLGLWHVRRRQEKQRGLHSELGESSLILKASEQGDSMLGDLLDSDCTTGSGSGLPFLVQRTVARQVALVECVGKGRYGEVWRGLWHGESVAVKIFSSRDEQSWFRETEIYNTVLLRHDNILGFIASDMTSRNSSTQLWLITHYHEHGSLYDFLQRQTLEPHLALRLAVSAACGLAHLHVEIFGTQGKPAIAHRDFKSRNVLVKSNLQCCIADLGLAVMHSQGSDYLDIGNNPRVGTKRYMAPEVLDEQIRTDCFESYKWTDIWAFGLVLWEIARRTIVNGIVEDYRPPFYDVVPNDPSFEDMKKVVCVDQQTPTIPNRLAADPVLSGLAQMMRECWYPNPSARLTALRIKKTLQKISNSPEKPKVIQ
T7 sequence (O00238 whole entry): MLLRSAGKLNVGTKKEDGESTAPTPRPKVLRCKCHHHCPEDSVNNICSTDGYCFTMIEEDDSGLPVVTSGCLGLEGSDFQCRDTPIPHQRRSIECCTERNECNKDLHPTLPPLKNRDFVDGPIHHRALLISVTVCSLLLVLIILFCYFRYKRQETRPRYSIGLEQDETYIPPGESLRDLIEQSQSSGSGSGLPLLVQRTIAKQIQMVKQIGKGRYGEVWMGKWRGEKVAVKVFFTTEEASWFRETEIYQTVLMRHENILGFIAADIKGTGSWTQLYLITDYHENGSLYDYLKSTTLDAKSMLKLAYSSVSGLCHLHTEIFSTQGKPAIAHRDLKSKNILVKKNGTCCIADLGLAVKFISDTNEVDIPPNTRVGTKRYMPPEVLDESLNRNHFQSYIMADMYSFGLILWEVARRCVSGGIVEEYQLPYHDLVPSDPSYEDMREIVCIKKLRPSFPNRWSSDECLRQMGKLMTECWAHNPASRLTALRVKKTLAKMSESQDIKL
Chain of Interferon-induced, double-stranded RNA-activated protein kinase (Homo sapiens) (P19525 whole entry): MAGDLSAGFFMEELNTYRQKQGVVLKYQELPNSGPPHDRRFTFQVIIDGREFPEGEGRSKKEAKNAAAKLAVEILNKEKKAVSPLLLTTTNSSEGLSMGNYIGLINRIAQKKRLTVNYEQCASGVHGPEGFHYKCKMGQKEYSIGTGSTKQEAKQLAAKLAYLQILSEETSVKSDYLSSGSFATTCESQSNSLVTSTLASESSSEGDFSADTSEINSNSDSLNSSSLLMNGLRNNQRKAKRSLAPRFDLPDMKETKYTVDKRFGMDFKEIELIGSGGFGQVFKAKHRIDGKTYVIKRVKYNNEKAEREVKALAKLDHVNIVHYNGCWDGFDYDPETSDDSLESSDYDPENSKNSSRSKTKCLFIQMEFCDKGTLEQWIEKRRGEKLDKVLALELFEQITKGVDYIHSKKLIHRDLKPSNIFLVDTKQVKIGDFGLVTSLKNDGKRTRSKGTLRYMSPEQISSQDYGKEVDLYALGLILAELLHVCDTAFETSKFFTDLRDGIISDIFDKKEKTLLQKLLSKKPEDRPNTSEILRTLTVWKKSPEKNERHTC
Chain of Serine/threonine-protein kinase 38 (Homo sapiens) (Q15208 2-465 limits assumed): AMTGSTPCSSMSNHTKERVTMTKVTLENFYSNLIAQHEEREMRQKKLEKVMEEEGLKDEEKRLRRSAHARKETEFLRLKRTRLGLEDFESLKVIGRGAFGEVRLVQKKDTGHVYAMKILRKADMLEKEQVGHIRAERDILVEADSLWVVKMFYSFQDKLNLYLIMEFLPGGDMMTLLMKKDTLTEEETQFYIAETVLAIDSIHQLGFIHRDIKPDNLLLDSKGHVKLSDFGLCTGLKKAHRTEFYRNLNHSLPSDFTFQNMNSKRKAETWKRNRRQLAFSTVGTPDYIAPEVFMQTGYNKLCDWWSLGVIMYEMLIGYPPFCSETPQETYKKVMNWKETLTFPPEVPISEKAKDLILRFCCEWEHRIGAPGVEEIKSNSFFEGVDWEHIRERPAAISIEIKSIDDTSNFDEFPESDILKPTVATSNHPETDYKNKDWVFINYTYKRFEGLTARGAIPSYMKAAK
Chain of Non-receptor tyrosine-protein kinase TYK2 (Homo sapiens) (P29597 whole entry, the tested form may be a part): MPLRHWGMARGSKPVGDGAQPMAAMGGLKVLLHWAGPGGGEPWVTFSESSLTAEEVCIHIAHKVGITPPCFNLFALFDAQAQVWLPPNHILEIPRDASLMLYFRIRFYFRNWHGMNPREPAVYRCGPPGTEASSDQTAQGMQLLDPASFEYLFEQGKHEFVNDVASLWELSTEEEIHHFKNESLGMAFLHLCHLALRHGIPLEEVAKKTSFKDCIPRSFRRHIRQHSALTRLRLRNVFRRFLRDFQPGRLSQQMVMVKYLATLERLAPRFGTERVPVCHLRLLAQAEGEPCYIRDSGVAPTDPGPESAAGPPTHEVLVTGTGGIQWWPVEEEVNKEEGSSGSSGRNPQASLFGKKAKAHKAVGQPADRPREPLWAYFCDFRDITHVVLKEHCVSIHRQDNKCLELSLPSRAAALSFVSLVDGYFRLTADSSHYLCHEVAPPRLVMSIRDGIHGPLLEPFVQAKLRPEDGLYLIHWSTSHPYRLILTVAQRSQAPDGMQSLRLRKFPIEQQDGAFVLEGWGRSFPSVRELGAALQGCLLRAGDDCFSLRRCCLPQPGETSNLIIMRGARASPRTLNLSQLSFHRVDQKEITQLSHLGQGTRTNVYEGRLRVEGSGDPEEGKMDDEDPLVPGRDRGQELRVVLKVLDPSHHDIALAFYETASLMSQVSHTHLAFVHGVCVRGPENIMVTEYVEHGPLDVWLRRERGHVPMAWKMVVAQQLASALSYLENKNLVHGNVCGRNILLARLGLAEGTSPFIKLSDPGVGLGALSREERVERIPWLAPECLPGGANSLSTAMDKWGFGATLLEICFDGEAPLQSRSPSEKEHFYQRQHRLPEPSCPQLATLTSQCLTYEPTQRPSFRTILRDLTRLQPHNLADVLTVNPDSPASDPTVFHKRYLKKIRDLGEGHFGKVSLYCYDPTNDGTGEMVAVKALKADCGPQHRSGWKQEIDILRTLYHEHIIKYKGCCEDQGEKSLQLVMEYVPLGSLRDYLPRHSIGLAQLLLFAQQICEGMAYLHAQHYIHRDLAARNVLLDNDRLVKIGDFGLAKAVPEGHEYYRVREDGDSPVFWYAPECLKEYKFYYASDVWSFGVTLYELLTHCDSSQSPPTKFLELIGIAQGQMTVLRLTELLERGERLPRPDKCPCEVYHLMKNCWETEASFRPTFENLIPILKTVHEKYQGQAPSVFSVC

Compound: CN(C)Cc1ccc(-c2cnc(N)c(C(=O)NC3CCCC3O)n2)cc1 (centres undefined)
permeability [1]: 99%
CLH [2]: 179 µL/min/mg
solubility [3]: 940 µM (≈ 334 µg/mL)

Compound: CC(C)NC(=O)c1nc(-c2ccc(CN(C)C)cc2)cnc1N
permeability [1]: 100%
CLH [2]: 634 µL/min/mg
solubility [3]: > 1000 µM

Compound: C[C@]1(O)CC[C@H](NC(=O)c2nc(-c3ccc(CN4CCC(N5CCOCC5)CC4)cc3Cl)cnc2N)CC1
CLH [2]: 197 µL/min/mg

Compound: Nc1ncc(-c2ccc(CN3CCC(N4CCOCC4)CC3)cc2Cl)nc1C(=O)NC12CCC(O)(CC1)CC2
Activity [4]: 24%
IC50 (TGF-beta receptor type-1): 2200 nM
Activity [5]: 11%
Ratio IC50 (Homo sapiens [6]): 35
Activity [7]: 2%
Ratio IC50 (Homo sapiens [8]): 263
Ratio IC50 (Homo sapiens [9]): 275
Activity [10]: 14%
permeability [1]: 99%
IC50 [11]: 120 nM
IC50 (Activin receptor type-1 [12]): 12 nM
CLH [2]: 55 µL/min/mg
Ratio IC50 (Homo sapiens [13]): 1.5
IC50 (Activin receptor type-1 [14]): 44 nM
IC50 (Activin receptor type-1 [15]): 8 nM
solubility [3]: 420 µM (≈ 233 µg/mL)
Activity [16]: 29%
Ratio IC50 (Homo sapiens [17]): 15
Activity [18]: 0.7%
IC50 [19]: 280 nM
IC50 [20]: 2100 nM
Activity [21]: 14%
Activity [22]: 8.5%
Activity [23]: 27%

Compound: C[C@@](O)(CNC(=O)c1nc(-c2ccc(CN3CCNCC3)cc2)cnc1N)C(F)(F)F
permeability [1]: 42%
CLH [2]: < 10 µL/min/mg
solubility [3]: > 1000 µM

Compound: Nc1ncc(-c2ccc(CN3CCC(N4CCOCC4)CC3)cc2Cl)nc1C(=O)N[C@H]1CC[C@H](O)CC1
permeability [1]: 96%
CLH [2]: 74 µL/min/mg
solubility [3]: > 1000 µM

Compound: CCN(CC)C1CCN(Cc2ccc(-c3cnc(N)c(C(=O)N[C@H]4CC[C@H](O)CC4)n3)cc2)CC1
permeability [1]: 61%
CLH [2]: < 10 µL/min/mg
solubility [3]: > 1000 µM

Compound: CC(C)N1CCN(Cc2ccc(-c3cnc(N)c(C(=O)N[C@H]4CC[C@H](O)CC4)n3)cc2)CC1
permeability [1]: 85%
CLH [2]: 12 µL/min/mg
solubility [3]: 830 µM (≈ 376 µg/mL)

Compound: CN(C)Cc1ccc(-c2cnc(N)c(C(=O)NC[C@@](C)(O)C(F)(F)F)n2)cc1
permeability [1]: 99%
CLH [2]: 126 µL/min/mg
solubility [3]: 510 µM (≈ 203 µg/mL)

Compound: C[C@@](O)(CNC(=O)c1nc(-c2ccc(CN3CCOCC3)cc2)cnc1N)C(F)(F)F
permeability [1]: 99%
CLH [2]: 86 µL/min/mg
solubility [3]: 190 µM (≈ 83.5 µg/mL)

Compound: CN(C)Cc1ccc(-c2cnc(N)c(C(=O)NC3CCC(O)CC3)n2)cc1 (centres undefined)
permeability [1]: 94%
CLH [2]: 64 µL/min/mg
solubility [3]: 850 µM (≈ 314 µg/mL)

More lines, now with the values ahead:

permeability [1]: 100%
CLH [2]: 839 µL/min/mg
solubility [3]: 190 µM (≈ 67.2 µg/mL)
Compound: CN(C)Cc1ccc(-c2cnc(N)c(C(=O)NC3CCCCC3)n2)cc1

permeability [1]: 45%
CLH [2]: 20 µL/min/mg
solubility [3]: 4 µM (≈ 1.95 µg/mL)
Compound: C[C@@](O)(CNC(=O)c1nc(-c2ccc(CN3CCS(=O)(=O)CC3)cc2)cnc1N)C(F)(F)F

permeability [1]: 93%
CLH [2]: 159 µL/min/mg
solubility [3]: 880 µM (≈ 337 µg/mL)
Compound: CN(C)Cc1ccc(-c2cnc(N)c(C(=O)NCC(O)C(F)(F)F)n2)cc1 (centres undefined)

permeability [1]: 99%
CLH [2]: 373 µL/min/mg
solubility [3]: > 1000 µM
Compound: CCNC(=O)c1nc(-c2ccc(CN(C)C)cc2)cnc1N

permeability [1]: 99%
CLH [2]: 58 µL/min/mg
solubility [3]: > 1000 µM
Compound: CCN(CC)Cc1ccc(-c2cnc(N)c(C(=O)NC[C@@](C)(O)C(F)(F)F)n2)cc1

permeability [1]: 56%
CLH [2]: < 10 µL/min/mg
solubility [3]: > 1000 µM
Compound: Nc1ncc(-c2ccc(CN3CCC(N4CCCC4)CC3)cc2)nc1C(=O)N[C@H]1CC[C@H](O)CC1 (stereo in doubt; 18)

permeability [1]: 77%
CLH [2]: 103 µL/min/mg
solubility [3]: > 1000 µM
Compound: CC(O)CNC(=O)c1nc(-c2ccc(CN(C)C)cc2)cnc1N (racemic)

permeability [1]: 65%
CLH [2]: 19 µL/min/mg
solubility [3]: > 1000 µM
Compound: Nc1ncc(-c2ccc(CN3CCC(N4CCOCC4)CC3)cc2)nc1C(=O)N[C@H]1CC[C@H](O)CC1

permeability [1]: 99%
CLH [2]: 28 µL/min/mg
solubility [3]: > 1000 µM
Compound: CC(C)N1CCN(Cc2ccc(-c3cnc(N)c(C(=O)NC[C@@](C)(O)C(F)(F)F)n3)cc2)CC1

permeability [1]: 62%
CLH [2]: 23 µL/min/mg
Compound: Nc1ncc(-c2ccc(CN3CCC(N4CCCC4)CC3)cc2)nc1C(=O)N[C@H]1CC[C@H](O)CC1 (stereo in doubt; 19)

permeability [1]: 99%
CLH [2]: 41 µL/min/mg
solubility [3]: > 1000 µM
Compound: C[C@@](O)(CNC(=O)c1nc(-c2ccc(CN3CCCC3)cc2)cnc1N)C(F)(F)F
